Experimental findings from patent US20250152577A1, “Pharmaceutical Composition of Ethidium Bromide and Use in Treating Cancer” (RUIJIN HOSPITAL, SHANGHAI JIAOTONG UNIVERSITY SCHOOL OF …, priority 2022, published 2025) are described below.

SMILES strings stand for the structures.

For one series, the system named is Reh Leukemia. As to the kind of experiment: Median lethal dosage (IC50) against tumor cell lines. It counts as cell-based. Conditions: Reh leukemia tumor cells.
A further series relates to AGS Gastric cancer. The description is as above. The following applies: AGS gastric cancer tumor cells. The class given is cell-based.
Series [1] in a line: Tolerability of gavage oral administration in mice. It counts as in vivo. The following applies: gavage oral 20 mg/Kg per day.
Series [2] deals with pancreatic cancer cells Panc1. Kind of series: Intraperitoneal injection of pancreatic cancer cells Panc1 in nude mice. Conditions: for tumor in the pancreas: start 3 days after cell injection. The class given is in vivo. Here is the method:
To further verify whether ethidium bromide can inhibit tumor migration in vivo, we injected 2×10^6 pancreatic cancer cells Panc1 intraperitoneally into nude mice, which were then divided into 3 groups: control group, gavage, and intravenous injection administration. Mice in the gavage-administration group were started with gavage oral administration of 20 mg/Kg ethidium bromide per day by gavage 3 days after intraperitoneal injection of pancreatic cancer cells. Mice in the intravenous administration group were administered with 5 mg/Kg ethidium bromide per day intravenously (Tail-IV) 3 days after intraperitoneal injection of pancreatic cancer cells.
In order to further investigate the anti-tumor effect of ethidium bromide on nude mice with advanced tumorigenicity and to obtain its effect on the viability of nude mice, we intraperitoneally injected the nude mice with 2×10^6 pancreatic cancer cells Panc1, which were then divided into 3 groups, the control group (no-treatment group), the early-injection group (administered intravenously after 3 days) and the late-injection group (administered intravenously after 14 days). Mice in the early injection group were administered with 5 mg/Kg ethidium bromide intravenously per day for 3 weeks 3 days after intraperitoneal injection of pancreatic cancer cells (starting intravenous administration after 3 days for about 3 weeks). Mice in the late injection group were administered with 5 mg/Kg ethidium bromide intravenously per day for 3 weeks starting 2 weeks days after intraperitoneal injection of pancreatic cancer cells (starting intravenous administration after 14 days for about 3 weeks).
In addition, we utilize the most advanced nuclear magnetic spectrometer uMR 9.4T with a 30 cm aperture magnet jointly developed by our work unit and Shanghai United Imaging Healthcare Co., LTD, as well as our self-developed GC, GPA, and VTC42 coils specially designed for abdominal scanning, and an optional PET insert system to achieve the PET-MR imaging results of the temporal and spatial integrality. The development of pancreatic cancer was followed dynamically in the control and dosing groups following intraperitoneal injection of pancreatic cancer cells. Mice were injected intraperitoneally with 2×10^6 pancreatic cancer cells, Panc1, and left for 2 weeks after which a visible tumor mass can be detected in the abdominal cavity to begin intravenous administration of 5 mg/Kg ethidium bromide for 4 weeks. […] Moreover, the abdominal cavity of the control mice was filled with ascites by the late stage (where the arrows are shown), whereas there was none in the dosing group (FIGS. 13A and 13B). […] However, clearance was not achieved mostly as in the previous results and we analyzed that it might be due to the fact that the mice were kept in a non-SPF environment during the whole administration period of MRI, thus affecting the effect of the drug.

In another series the test system is N2A Neuroglioma. As to the kind of experiment: Median lethal dosage (IC50) against tumor cell lines. Conditions: N2A neuroglioma tumor cells. The class given is cell-based.

Broadly, the IC50 is the midpoint of a concentration-inhibition curve. High values mean lower potency, low ones higher potency.

Turning to `CC[n+]1c(-c2ccccc2)c2cc(N)ccc2c2ccc(N)cc21` [ethidium bromide, Ethidium bromide], the values for the IC50 in the series on Reh Leukemia, with AGS Gastric cancer and in the series on N2A Neuroglioma were 2.23 µM, 0.71 µM and 15.7 µM, respectively. Also, the tolerability result in series [1] was “well tolerated”. In addition, in series [2] (administration group, especially intravenous injection, vs control), the “weight of the pancreas” value was “significantly smaller than that of the control group”. The body weights result in series [2] (dosing group, intravenous 5 mg/Kg per day, 3 weeks) is “relatively stable”. The “pancreatic cancer tumor (weight) vs control” value in series [2] (dosing groups, intravenous 5 mg/Kg per day, 3 weeks) was “significantly smaller than that in the control group”. Also, the “nude mice with no tumor” value in series [2] (early injection group: intravenous 5 mg/Kg per day from day 3, 3 weeks) is reported as “More than 80%”. Also, the “tumor in the pancreas” value in series [2] (gavage 20 mg/Kg per day) was “still had a small amount of tumor, but was significantly smaller than that in the control group”; in series [2] (intravenous 5 mg/Kg per day), “no tumor was found in the pancreas”. For the same molecule, in series [2] (intravenous 5 mg/Kg, start 2 weeks after cell injection, 4 weeks), the “growth of pancreatic cancer in the abdominal cavity (MRI)” value is on record as “significantly inhibited, or almost completely inhibited”. Further, the body weight entry in series [2] (intravenous injection compared with gavage) was “did not cause a significant decrease in body weight”. In addition, the blood hemoglobin entry in series [2] (late dosing group, intravenous 5 mg/Kg per day, 3 weeks) is recorded as “remained relatively normal”. Besides, the “tumors in the liver tissues vs control” value in series [2] (late injection group) is listed as “significantly reduced”. In series [2] (late injection group: intravenous 5 mg/Kg per day from day 14, 3 weeks), the “nude mice with no tumor at all” value is recorded as “about 45%”. Besides, the “weights of liver and pancreatic tissues vs control” value in series [2] (late-injected group) is “significantly smaller”.
